Assay results as given in patent US20060135569A1, “Use of benzisoselenazolone compounds against ischemic myocardial damage” (priority 2002, published 2006).
Marks after values point to notes of the source that are not given here.

Assays:
Na^+/Ca^2+ exchanger = biological target: T1, Na^+/Ca^2+ exchanger (Cavia porcellus, UniProt P48766); assay: Na^+/Ca^2+ exchange current (INa—Ca), whole-cell patch clamp, intracellular Na^+ overload cell model; assay type: cell-based, guinea pig
T1 construct: endogenous in cells; host or cells: freshly isolated guinea pig ventricular myocytes
Outline: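 Whole-cell patch clamp on guinea pig ventricular myocytes, Na⁺-loaded via pipette dialysis; holding −40 mV, step to +60 mV, ramp down at 80 mV·s⁻¹ to −100 mV, 0.05 Hz. K⁺, L-type Ca²⁺ and Na⁺/K⁺-ATPase blocked; INa–Ca taken as 5 mmol·L⁻¹ Ni²⁺-sensitive current.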

[1] = tested on: isolated rat hearts subjected to ischemia-reperfusion (I/R); assay: Isolated heart subjected to ischemia/reperfusion injury (arrhythmia); conditions: for AAT: arrhythmic occurrence time, Time / VF (ventricular fibrillation) Incidence rate (%) / VPS (ventricular premature beats) Incidence rate (%) / VT (ventricular tachycardia) Incidence rate (%): 10^−6 M, isolated heart ischemia/reperfusion
Outline: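 Rat hearts perfused in vitro and subjected to ischemia-reperfusion after drug exposure. Recorded endpoints: duration of ventricular arrhythmia and incidence of ventricular extrasystole and VT/VF.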

[2] = tested on: acute myocardial ischemia in anesthetized dogs; assay: Acute myocardial ischemia and infarction in anesthetized dogs; assay type: in vivo, dog
Description: Dogs were divided into three groups: 1, vehicle control group, PEG 1 ml/kg, n=5; 2, dilthiazem group, 5 mg/kg, n=5; 3, IMM-004 group, 30 mg/kg, n=5. The tested drugs were prepared in distilled water at volume of 1 ml/kg. The tested items were administrated via duodenum by animals.

[3] = Acute toxicity study in mice; assay type: in vivo; conditions: male, KM, mouse, in vivo; oral, mice; read-out: LD50 (50% lethal dose)
Description: Acute toxicity studies were performed with IMM-004 and IMM-127 (synthesized by ourselves). The compound was provided as powder, which was milled and suspended in 0.5% carboxymethylcellulose sodium (CMC—Na) before use.
Male KM mice weighting 19±2 g were housed for an adaptation before use. Mice were randomly divided into groups, and each group consists of 10 animals. Mice were all fasted for 14 hrs before the administration of the tested compounds. Activity of mice in high dose group was reduced 30 min after the administration. 24 h after the administration, mice in each group were restored to normal. Mice were observed daily for a period of 7 days after the administration.

[4] = Example 1 table, myocardial cell
[5] = screening of 22 candidate compounds
[6] = N-BT staining, Dilthiazem 5 mg/kg, IMM-004 30 mg/kg, % according to b137

With O=c1c2cc(F)ccc2[se]n1-c1ccccn1 [IMM-127, 5-fluoro-2-(2-pyridyl)-1,2-benz-isoselenazol-3(2H)-one] the “Inhibitory rate of inward INa—Ca (%)” value (Na^+/Ca^2+ exchanger; [4]) was 21%, the “Inhibitory rate of outward INa—Ca (%)” value (Na^+/Ca^2+ exchanger; [4]) was 43% and the “Inhibitory rate of inward INa—Ca (%)” value (Na^+/Ca^2+ exchanger; [5]) was 21%. For the same molecule, the “Inhibitory rate of outward INa—Ca (%)” value (Na^+/Ca^2+ exchanger; [5]) was 43* %, the “AAT: arrhythmic occurrence time, Time” value [1] was 19.72 ± 4.42 min and the “VF (ventricular fibrillation) Incidence rate (%)” value [1] was 38%. The “VPS (ventricular premature beats) Incidence rate (%)” value [1] was 50% and the “VT (ventricular tachycardia) Incidence rate (%)” value [1] was 62.5%.
In the case of O=c1c2cc(Cl)ccc2[se]n1-c1ccccn1 [IMM-004, 5-chloro-2-(2-pyridyl)-1,2-benz-isoselenazol-3(2H)-one], the “Inhibitory rate of inward INa—Ca (%)” value (Na^+/Ca^2+ exchanger; [4]) was 44%, the “Inhibitory rate of outward INa—Ca (%)” value (Na^+/Ca^2+ exchanger; [4]) was 52% and the “Inhibitory rate of inward INa—Ca (%)” value (Na^+/Ca^2+ exchanger; [5]) was 44%. For the same molecule, the “Inhibitory rate of outward INa—Ca (%)” value (Na^+/Ca^2+ exchanger; [5]) was 52* %, the “infarction size (of heart) decrease compared with the vehicle control” value ([2]; 30 mg/kg) was 69.18% and the “infarction size (of ventricle) decrease compared with the vehicle control” value ([2]; 30 mg/kg) was 67.94%. The “Σ-ST decreased by” value ([2]; 30 mg/kg via duodenum, 180 min after administration) was 53.90±20.60%, the “severity of myocardial ischemia (Σ-ST)” value ([2]; 30 mg/kg via duodenum, 180 min after administration, from 325.20±55.95 mV) was 146.80±60.25 mV and the “Coronary flow (under heading arterial and venous blood oxygen content)” value ([2]; 30 mg/kg, 120 min and 180 min after administration, vs baseline) was “significantly increased”. For the same molecule, the “Myocardial infarction size, % of heart” value ([2]; 30 mg/kg, N-BT staining) was 2.04±0.93%, the “Myocardial infarction size, % of ventricular” value ([2]; 30 mg/kg, N-BT staining) was 5.08±2.00% and the “elevation of LDH activity” value ([2]; 30 mg/kg, vs vehicle control) was “no effect”. The “elevation of serum AST” value ([2]; 30 mg/kg, vs vehicle control) was “significantly inhibited”, the “elevation of serum CK” value ([2]; 30 mg/kg, vs vehicle control) was “significantly inhibited” and the “Coronary flow increase verse the baseline” value ([2]; 30 min after treatment, 30 mg/kg) was 15.02±22.16%. The “Infarction area/ heart area” value [2, 6] was 2.04 ± 0.93, the Infarction area/ventricle area [2, 6] was 5.08 ± 2.00 and the “Infarction area mm^2” value ([2]; N-BT staining, Dilthiazem 5 mg/kg, IMM-004 30 mg/kg, X ± SD) was 255.70 ± 58.2*** mm^2. The “Myocardial infarction size, in words” value ([2]; N-BT staining, IMM-004 30 mg/kg, dilthiazem 5 mg/kg) was “significantly reduced”, the “Coronary flows, in words” value ([2]; after treatment, dilthiazem 5 mg/kg, IMM-004 30 mg/kg) was “significantly increased” and the “protective effects on myocardial insults” value ([1]; 10^−6M, isolated heart) was “significant protective effects”. For the same molecule, the “AAT: arrhythmic occurrence time, Time” value [1] was 0.70 ± 0.33 min, the “VF (ventricular fibrillation) Incidence rate (%)” value [1] was 0** % and the “VPS (ventricular premature beats) Incidence rate (%)” value [1] was 37.5%. For the same molecule, the “VT (ventricular tachycardia) Incidence rate (%)” value [1] was 37.5% and the LD50 at 7 days [3] was > 5000 mg/kg.
